Test results as given in patent US20230107983A1, “COMPOUND ISOLATED FROM TORILIDIS FRUCTUS, AND ANTICANCER PHARMACEUTICAL COMPOSITION CONTAINING SAME AS ACTIVE INGREDIENT” (PHARMA-GENE CO., LTD., priority 2020, published 2023).

Experiments:
[1] = Change in mouse weight, A549 xenograft, intraperitoneal administration; format: in vivo, nude mouse; set-up: Change in mouse weight: unit not given here; details: once a day; for difference in body weight according to the administration of the drugs: day 2 to day 23
Procedure: (§1) The Tr-9 was dissolved in sterile PBS and 1 mM Tr-9 200 µℓ was intraperitoneally administered per mouse once a day, and all animals were weighed immediately before the start of drug (Tr-9) administration and 10 times in total from day 2 to day 23 after cancer cell transplantation (Table 4).
(§2) In Table 4 above, data values are the mean ± standard deviation. After measuring the body weight, the animals were killed using CO2 gas, and the tumor was separated and the size was measured in 3 directions using a vernier caliper for each animal. Then, the change in tumor size was expressed as a calculated value of (length × width × height)/2 (Table 4).

[2] = system: gastric cancer(AGS) cell line; test: WST-1 assay, cell viability of gastric cancer cell line; format: cell-based; details: 10-100 µg/Mℓ, 24 hours, FIG. 4
Procedure: (§3) The cytotoxicity of the Tr-9 compound to six cancer cell lines was confirmed. Lung cancer(A549), gastric cancer(AGS), liver cancer(Hep3B)), breast cancer(MDA-MB-231), colorectal cancer(HCT116) and pancreatic cancer(BxPC-3) cell lines and fibroblasts were aliquoted in a 96-well plate in an amount of 5×10^3 cells/well, and the novel compound Tr-9 was treated thereto at a concentration of 10, 20, 40, 60, 80, 100 µg/Mℓ for 24 hours, respectively. Lung cancer cell line was further treated at a concentration of 100 µg/Mℓ for 24 hours, 48 hours and 72 hours.
(§4) Then, the amount of living cells was measured using WST(high sensitive Water Soluble Tetrazolium salt). WST reacts with dehydrogenase in living cells and produces orange-colored watersoluble formazan. Since dehydrogenase that reacts with WST is an enzyme present in the mitochondrial electron transport chain of metabolically active cells and is effective only in living cells, the production of formazan is proportional to the number of living cells. Therefore, the absorbance at 450 nm was measured to confirm the cell viability through the formation of formazan.

[3] = system: liver cancer(Hep3B) cell line; test: WST-1 assay, cell viability of liver cancer cell line; format: cell-based; details: 10-100 µg/Mℓ, 24 hours, FIG. 6
Procedure: as §3, §4

[4] = system: breast cancer(MDA-MB-231) cell line; test: WST-1 assay, cell viability of breast cancer cell line; format: cell-based; details: 10-100 µg/Mℓ, 24 hours, FIG. 5
Procedure: as §3, §4

[5] = system: Human fibroblast; test: WST-1 assay, cell viability of fibroblasts (normal cells); format: cell-based; details: 10-100 µg/Mℓ, 24 hours, FIG. 9
Procedure: as §3, §4

[6] = system: pancreatic cancer(BxPC-3) cell line; test: WST-1 assay, cell viability of pancreatic cancer cell line; format: cell-based; details: 10-100 µg/Mℓ, 24 hours, FIG. 8
Procedure: as §3, §4

[7] = system: colorectal cancer(HCT116) cell line; test: WST-1 assay, cell viability of colorectal cancer cell line; format: cell-based, human; details: 10-100 µg/Mℓ, 24 hours, FIG. 7
Procedure: as §3, §4

[8] = system: Lung cancer(A549) cell line; test: WST-1 assay, cell viability of lung cancer cell line; format: cell-based, human; details: 10-100 µg/Mℓ, 24 hours, FIG. 3
Procedure: as §3, §4

[9] = system: human lung cancer cells (A549); test: Nude mouse xenograft model of human lung cancer cells, intraperitoneal administration; format: in vivo; details: for tumor size compared to the control group: after day 19
Procedure: Anticancer activity against lung cancer according to the intraperitoneal administration of Tr-9 was confirmed through a nude mouse xenograft model of human lung cancer cells (A549). In Example 4, it was carried out using the same animal model and method as the oral administration, except that it was administered intraperitoneally.
Specific pathogen-free (SPF) nude mice of the BALB/C strain were used as the animal model. Animals were bred in the animal room of Daedeok Campus of Hannam University maintained at a temperature of 23±3° C., relative humidity of 55±15%, ventilation frequency of 10-20 times/hr, lighting time of 12 hours(lights on at 8 am and off at 8 pm) and illuminance of 150 to 300 Lux.
For cancer cell transplantation, all cells were collected and counted on the last day of culture, and the concentration of human lung cancer cell line A549 was adjusted to 5×10^6 cells/ml using PBS. The adjusted cell culture solution was injected subcutaneously into the auxiliary region between the right scapula and chest wall at 0.2 ml (1×10^6 cells/mouse) per mouse.
as §1, §2
Tumor size increase is (Δt)= Vt—Vo, wherein Vt is the value of measuring the tumor size by date, and Vo is the value of measuring the initial tumor size.

[10] = intraperitoneal once a day, Day 0, table title: Change in tumor size
[11] = intraperitoneal once a day, Day 2, table title: Change in tumor size
[12] = intraperitoneal once a day, Day 2, vs control
[13] = intraperitoneal once a day, Day 5, table title: Change in tumor size
[14] = intraperitoneal once a day, Day 5, vs control
[15] = intraperitoneal once a day, Day 7, table title: Change in tumor size
[16] = intraperitoneal once a day, Day 7, vs control
[17] = intraperitoneal once a day, Day 9, table title: Change in tumor size
[18] = intraperitoneal once a day, Day 9, vs control
[19] = intraperitoneal once a day, Day 12, table title: Change in tumor size
[20] = intraperitoneal once a day, Day 12, vs control
[21] = intraperitoneal once a day, Day 14, table title: Change in tumor size
[22] = intraperitoneal once a day, Day 14, vs control
[23] = intraperitoneal once a day, Day 16, table title: Change in tumor size
[24] = intraperitoneal once a day, Day 16, vs control
[25] = intraperitoneal once a day, Day 19, table title: Change in tumor size
[26] = intraperitoneal once a day, Day 19, vs control
[27] = intraperitoneal once a day, Day 21, table title: Change in tumor size
[28] = intraperitoneal once a day, Day 21, vs control
[29] = intraperitoneal once a day, Day 23
[30] = intraperitoneal once a day, Day 23, table title: Change in tumor size
[31] = intraperitoneal once a day, Day 23, vs control

## CC(=O)OC(C)(C)C1CC2=C(C)C(=O)CC2C(C)CC1OC(=O)CC(C)C (stereo not shown) [Tr-9]
[1]; 0 Day after drug treatment
  Change in mouse weight: 100.0 ±0.0
[1]; 2 Days after drug treatment
  Change in mouse weight: 98.2 ±1.0
[1]; 5 Days after drug treatment
  Change in mouse weight: 94.7 ±2.5
[1]; 7 Days after drug treatment
  Change in mouse weight: 94.1 ±2.2
[1]; 9 Days after drug treatment
  Change in mouse weight: 99.7 ±2.7
[1]; 12 Days after drug treatment
  Change in mouse weight: 96.7 ±3.1
[1]; 14 Days after drug treatment
  Change in mouse weight: 97.3 ±2.8
[1]; 16 Days after drug treatment
  Change in mouse weight: 100.2 ±1.8
[1]; 19 Days after drug treatment
  Change in mouse weight: 98.3 ±2.9
[1]; 21 Days after drug treatment
  Change in mouse weight: 99.4 ±1.6
[1]; 23 Days after drug treatment
  Change in mouse weight: 100.2 ±2.6
[1]
  difference in body weight according to the administration of the drugs: almost no difference in body weight
[2]
  cell viability: decreases the cell viability
[3]
  cell viability: decreases the cell viability
[4]
  cell viability: decreases the cell viability
[5]
  cell viability of human fibroblast: little change in the cell viability
[6]
  cell viability: decreases the cell viability
[7]
  cell viability: decreases the cell viability
[8]
  cell viability: decreases the cell viability
[9]; intraperitoneal
  tumor size further reduced compared to the group intraperitoneally administered with the torilin: about 17%
  tumor size compared to the control group: statistically significantly smaller
[9]; [10]
  Tumor size increase (Vt−V0): 0.0±0.0
[9]; [11]
  Tumor size increase (Vt−V0): 7.0±5.4
[9]; [12]
  Inhibition rate (tumor size increase): 48.5%
[9]; [13]
  Tumor size increase (Vt−V0): 13.8±8.5
[9]; [14]
  Inhibition rate (tumor size increase): 34.0%
[9]; [15]
  Tumor size increase (Vt−V0): 19.6±10.1
[9]; [16]
  Inhibition rate (tumor size increase): 42.2%
[9]; [17]
  Tumor size increase (Vt−V0): 24.4±7.1
[9]; [18]
  Inhibition rate (tumor size increase): 46.7%
[9]; [19]
  Tumor size increase (Vt−V0): 61.1±7.0
[9]; [20]
  Inhibition rate (tumor size increase): 30.5%
[9]; [21]
  Tumor size increase (Vt−V0): 116.4±15.1
[9]; [22]
  Inhibition rate (tumor size increase): 22.7%
[9]; [23]
  Tumor size increase (Vt−V0): 198.3±22.8
[9]; [24]
  Inhibition rate (tumor size increase): 24.6%
[9]; [25]
  Tumor size increase (Vt−V0): 309.2±39.5
[9]; [26]
  Inhibition rate (tumor size increase): 39.6%
[9]; [27]
  Tumor size increase (Vt−V0): 415.2±53.1
[9]; [28]
  Inhibition rate (tumor size increase): 38.9%
[9]; [29]
  Tumor weight at Day 23: 0.641 ± 0.1 g
[9]; [30]
  Tumor size increase (Vt−V0): 531.8±46.5
[9]; [31]
  Inhibition rate (tumor size increase): 44.2%

## C/C=C(/C)C(=O)O[C@@H]1C[C@H](C)[C@H]2CC(=O)C(C)=C2C[C@@H]1C(C)(C)OC(C)=O [Torilin, torilin, reference compound]
[1]; 0 Day after drug treatment
  Change in mouse weight: 100.0 ±0.0
[1]; 2 Days after drug treatment
  Change in mouse weight: 98.2 ±1.5
[1]; 5 Days after drug treatment
  Change in mouse weight: 98.2 ±1.4
[1]; 7 Days after drug treatment
  Change in mouse weight: 97.6 ±1.0
[1]; 9 Days after drug treatment
  Change in mouse weight: 102.7 ±2.7
[1]; 12 Days after drug treatment
  Change in mouse weight: 101.0 ±3.1
[1]; 14 Days after drug treatment
  Change in mouse weight: 101.2 ±2.6
[1]; 16 Days after drug treatment
  Change in mouse weight: 102.3 ±3.8
[1]; 19 Days after drug treatment
  Change in mouse weight: 103.4 ±5.2
[1]; 21 Days after drug treatment
  Change in mouse weight: 102.9 ±4.1
[1]; 23 Days after drug treatment
  Change in mouse weight: 105.0 ±4.6
[1]
  difference in body weight according to the administration of the drugs: almost no difference in body weight
[9]; [10]
  Tumor size increase (Vt−V0): 0.0±0.0
[9]; [11]
  Tumor size increase (Vt−V0): 13.2±13.2
[9]; [12]
  Inhibition rate (tumor size increase): 2.9%
[9]; [13]
  Tumor size increase (Vt−V0): 19.91±0.4
[9]; [14]
  Inhibition rate (tumor size increase): 4.8%
[9]; [15]
  Tumor size increase (Vt−V0): 28.9±12.5
[9]; [16]
  Inhibition rate (tumor size increase): 14.7%
[9]; [17]
  Tumor size increase (Vt−V0): 38.0±8.1
[9]; [18]
  Inhibition rate (tumor size increase): 17.0%
[9]; [19]
  Tumor size increase (Vt−V0): 75.1±10.7
[9]; [20]
  Inhibition rate (tumor size increase): 14.6%
[9]; [21]
  Tumor size increase (Vt−V0): 127.0±25.8
[9]; [22]
  Inhibition rate (tumor size increase): 15.6%
[9]; [23]
  Tumor size increase (Vt−V0): 210.5±44.8
[9]; [24]
  Inhibition rate (tumor size increase): 19.9%
[9]; [25]
  Tumor size increase (Vt−V0): 394.8±93.5
[9]; [26]
  Inhibition rate (tumor size increase): 22.9%
[9]; [27]
  Tumor size increase (Vt−V0): 525.2±99.1
[9]; [28]
  Inhibition rate (tumor size increase): 22.7%
[9]; [29]
  Tumor weight at Day 23: 0.97 ± 0.183 g
  Tumor weight reduction rate compared to control group: 28.6%
[9]; [30]
  Tumor size increase (Vt−V0): 695.0±110.6
[9]; [31]
  Inhibition rate (tumor size increase): 27.0%
[9]; intraperitoneal
  tumor size compared to the control group: statistically significantly smaller
